Data as given in publication PMC12141164, “Phase-1 study of vamotinib (PF-114), a 3rd generation BCR::ABL1 tyrosine kinase-inhibitor, in chronic myeloid leukaemia” (Annals of Hematology, 2025).
Several values for one entry are separate records, joined by “and”; a condition that tells them apart may be missing. Equal entries are not always repeated. Marks after values point to notes of the source that are not given here.

Test system: BCR::ABL1 positive CML
Assay: Phase-1 study: haematological, cytogenetic and molecular response
Type: in vivo, human
Settings: for Best response achieved on PF-114: individual patients
Description: Haematological response evaluations were done on the first day of each cycle of therapy; molecular response on the first day of cycles 1, 2, 4, 7, 10, 13 and then every three months; cytogenetic response – at screening and on the first days of cycles 4, 7, 13 and every three months thereafter, provided that there was no major molecular response.
Cytogenetic response was assessed by differential staining of chromosomes and if uninformative, by fluorescent in situ hybridization (FISH). Mutations in BCR::ABL1 were assessed by Sanger and next generation sequencing (NGS). Sanger sequencing was done at each center; NGS analyses were done in the laboratory of Prof. Susan Branford, University of Adelaide. Discordances were resolved as described in Table S2. Molecular response was assessed using the ratio of BCR::ABL1 to ABL1 measured according to the IS [9].

[1] = Subjects after ponatinib (N = 5)

Cc1ccc(C(=O)Nc2ccc(CN3CCN(C)CC3)c(C(F)(F)F)c2)cc1C#Cc1nnc2ccccn12 [vamotinib]
Subjects with loss of MCyR (Cohort 5 500 mg N=3): 0 no. (%) | Subjects with loss of MMR (Cohort 5 500 mg N=3): 0 no. (%) | CCyR achieved at treatment (Cohort 6 600 mg N=6): 0 no. (%) | CCyR by 6 months (Cohort 6 600 mg N=6): 0 no. (%) | CCyR by 12 months (Cohort 6 600 mg N=6): 0 no. (%) | CHR achieved at treatment (Cohort 6 600 mg N=6): 2 (33) no. (%) | CHR by the 3 months (Cohort 6 600 mg N=6): 2 (33) no. (%) | CHR by the 6th months (Cohort 6 600 mg N=6): 2 (33) no. (%) | CHR by the 12th months (Cohort 6 600 mg N=6): 2 (33) no. (%) | MCyR achieved at treatment (Cohort 6 600 mg N=6): 0 no. (%) | MCyR by 6 months (Cohort 6 600 mg N=6): 0 no. (%) | MCyR by 12 months (Cohort 6 600 mg N=6): 0 no. (%) | MMR achieved at treatment (Cohort 6 600 mg N=6): 0 no. (%) | MMR by 6 months (Cohort 6 600 mg N=6): 0 no. (%) | MMR by 12 months (Cohort 6 600 mg N=6): 0 no. (%) | MMR by 24 months (Cohort 6 600 mg N=6): 0 no. (%) | Subjects with loss of CCyR (Cohort 6 600 mg N=6): 0 no. (%) | Subjects with loss of CHR (Cohort 6 600 mg N=6): 0 no. (%) | Subjects with loss of MCyR (Cohort 6 600 mg N=6): 0 no. (%) | Subjects with loss of MMR (Cohort 6 600 mg N=6): 0 no. (%) | CCyR achieved at treatment (Cohort 7 750 mg N=4): 0 no. (%) | CCyR by 6 months (Cohort 7 750 mg N=4): 0 no. (%) | CCyR by 12 months (Cohort 7 750 mg N=4): 0 no. (%) | CHR achieved at treatment (Cohort 7 750 mg N=4): 1 (25) no. (%) | CHR by the 3 months (Cohort 7 750 mg N=4): 1 (25) no. (%) | CHR by the 6th months (Cohort 7 750 mg N=4): 1 (25) no. (%) | CHR by the 12th months (Cohort 7 750 mg N=4): 1 (25) no. (%) | MCyR achieved at treatment (Cohort 7 750 mg N=4): 0 no. (%) | MCyR by 6 months (Cohort 7 750 mg N=4): 0 no. (%) | MCyR by 12 months (Cohort 7 750 mg N=4): 0 no. (%) | MMR achieved at treatment (Cohort 7 750 mg N=4): 0 no. (%) | MMR by 6 months (Cohort 7 750 mg N=4): 0 no. (%) | MMR by 12 months (Cohort 7 750 mg N=4): 0 no. (%) | MMR by 24 months (Cohort 7 750 mg N=4): 0 no. (%) | Subjects with loss of CCyR (Cohort 7 750 mg N=4): 0 no. (%) | Subjects with loss of CHR (Cohort 7 750 mg N=4): 0 no. (%) | Subjects with loss of MCyR (Cohort 7 750 mg N=4): 0 no. (%) | Subjects with loss of MMR (Cohort 7 750 mg N=4): 0 no. (%) | CCyR achieved at treatment (Cohort 8 300 mg N=9): 5 no. (%) and 5 (56) no. (%) | CCyR by 6 months (Cohort 8 300 mg N=9): 3 (33) no. (%) | CCyR by 12 months (Cohort 8 300 mg N=9): 4 (44) no. (%) | CHR achieved at treatment (Cohort 8 300 mg N=9): 4 (100) no. (%) | CHR by the 3 months (Cohort 8 300 mg N=9): 4 (100) no. (%) | CHR by the 6th months (Cohort 8 300 mg N=9): 4 (100) no. (%) | CHR by the 12th months (Cohort 8 300 mg N=9): 4 (100) no. (%) | MCyR achieved at treatment (Cohort 8 300 mg N=9): 6 no. (%) and 6 (86) no. (%) | MCyR by 6 months (Cohort 8 300 mg N=9): 4 (57) no. (%) | MMR achieved at treatment (Cohort 8 300 mg N=9): 4 no. (%) and 4 (44) no. (%) | MMR by 6 months (Cohort 8 300 mg N=9): 3 (33) no. (%) | MMR by 12 months (Cohort 8 300 mg N=9): 3 (33) no. (%) | MMR by 24 months (Cohort 8 300 mg N=9): 4 (44) no. (%) | Subjects with loss of CCyR (Cohort 8 300 mg N=9): 1 (20) no. (%) | Subjects with loss of CHR (Cohort 8 300 mg N=9): 2 (50) no. (%) | Subjects with loss of MCyR (Cohort 8 300 mg N=9): 1 (17) no. (%) | Subjects with loss of MMR (Cohort 8 300 mg N=9): 0 no. (%) | CCyR [1]: none and 0/5^* | MCyR [1]: none and 0/5 | MMR [1]: 0/5^* | MMR (Subjects with BCR::ABL1^T315I (N = 16)): 0/16 | CCyR achieved at treatment (Total N=51): 10 no. (%) and 10 (20) no. (%) | CCyR by 6 months (Total N=51): 6 (12) no. (%) | CCyR by 12 months (Total N=51): 7 (14) no. (%) | CHR achieved at treatment (Total N=51): 14 no. (%) and 14 (47) no. (%) | CHR by the 3 months (Total N=51): 11 (37) no. (%) | CHR by the 6th months (Total N=51): 11 (37) no. (%) | CHR by the 12th months (Total N=51): 14 (47) no. (%) | MCyR achieved at treatment (Total N=51): 14 no. (%) and 14 (32) no. (%) | MCyR by 6 months (Total N=51): 10 (23) no. (%) | MCyR by 12 months (Total N=51): 11 (25) no. (%) | MMR achieved at treatment (Total N=51): 7 no. (%) and 7 (14) no. (%) | MMR by 6 months (Total N=51): 4 (8) no. (%) | MMR by 12 months (Total N=51): 4 (8) no. (%) | MMR by 24 months (Total N=51): 7 (14) no. (%) | Subjects with loss of CCyR (Total N=51): 2 (20) no. (%) | Subjects with loss of CHR (Total N=51): 8 no. (%) and 8 (57) no. (%) | Subjects with loss of MCyR (Total N=51): 2 (14) no. (%) | subjects achieving deep molecular response MR4.5 (dose of 300 mg): One | Median time to achieving a CHR (in vivo): 3.8 months | median time to MMR (in vivo): 5,6 months | median time to achievement of CCyR (in vivo): 5.6 months | median time to achievement of MCyR (in vivo): 4.5 months | Best response achieved on PF-114 (dose cohort 50 mg): CHR | Best response achieved on PF-114 (dose cohort 100 mg, listed as PF-114): MCyR and MMR | Best response achieved on PF-114 (dose cohort 125 mg): MR 4.5 | Best response achieved on PF-114 (dose cohort 200 mg, listed as PF-114): CHR and MCyR and CCyR and MR 4 | Best response achieved on PF-114 (dose cohort 300 mg, listed as PF-114): MMR and CHR and MR 4 and CCyR and MR 4.5 | Best response achieved on PF-114 (dose cohort 400 mg, listed as PF-114): CHR and CCyR and MCyR | Best response achieved on PF-114 (dose cohort 600 mg): CHR | Best response achieved on PF-114 (dose cohort 750 mg): CHR | time to CHR (one subject, myeloid variant M0 blast crisis, i(17) and BCR::ABL1^T315I): 5 weeks | duration of CCyR (subjects with BCR::ABL1^T315I): 2.8 months | duration of MCyR (subjects with BCR::ABL1^T315I): 2.8 months
